Data reported in patent US20060275503A1, “Combination treatment with strontium for the prophylaxis and/or treatment of cartilage and/or bone conditions” (Nordic Bone A/S, priority 2003, published 2006).
Each block holds one molecule with its values, some of them ahead of it.

Assays:
[1] = molecular target: T1, calcium-sensing receptor (CaR) (Homo sapiens, UniProt P41180); conditions: cited from earlier work
T1 sequence (P41180 20-1078): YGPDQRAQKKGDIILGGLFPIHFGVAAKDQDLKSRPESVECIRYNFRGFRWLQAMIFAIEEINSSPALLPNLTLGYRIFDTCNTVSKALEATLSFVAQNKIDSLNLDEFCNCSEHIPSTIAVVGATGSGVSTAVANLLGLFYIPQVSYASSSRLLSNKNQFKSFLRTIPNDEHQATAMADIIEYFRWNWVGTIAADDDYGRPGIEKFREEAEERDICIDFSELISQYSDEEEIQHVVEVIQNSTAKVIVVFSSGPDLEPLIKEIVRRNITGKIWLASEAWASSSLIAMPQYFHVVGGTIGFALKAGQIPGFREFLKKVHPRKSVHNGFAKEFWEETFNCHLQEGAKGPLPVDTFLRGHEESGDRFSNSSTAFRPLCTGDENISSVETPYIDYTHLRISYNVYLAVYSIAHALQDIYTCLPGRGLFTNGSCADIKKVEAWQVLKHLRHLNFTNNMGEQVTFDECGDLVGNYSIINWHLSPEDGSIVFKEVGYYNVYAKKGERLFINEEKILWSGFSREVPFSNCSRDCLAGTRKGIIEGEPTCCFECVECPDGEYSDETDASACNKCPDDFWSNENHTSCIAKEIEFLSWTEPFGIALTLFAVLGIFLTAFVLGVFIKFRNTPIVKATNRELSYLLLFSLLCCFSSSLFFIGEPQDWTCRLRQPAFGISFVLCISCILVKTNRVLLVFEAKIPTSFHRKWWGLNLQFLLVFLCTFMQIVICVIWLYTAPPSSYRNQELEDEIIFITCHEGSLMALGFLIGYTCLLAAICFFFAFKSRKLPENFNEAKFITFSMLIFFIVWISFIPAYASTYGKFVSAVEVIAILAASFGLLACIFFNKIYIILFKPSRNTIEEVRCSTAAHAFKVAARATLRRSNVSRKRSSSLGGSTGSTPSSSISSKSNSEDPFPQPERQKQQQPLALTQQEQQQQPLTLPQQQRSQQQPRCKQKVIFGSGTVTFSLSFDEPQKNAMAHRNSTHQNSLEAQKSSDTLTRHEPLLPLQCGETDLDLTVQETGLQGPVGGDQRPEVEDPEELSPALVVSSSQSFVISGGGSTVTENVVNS

[2] = Protocol: The solubility of the organic carboxylic acid strontium salts, were measured in water. The solubility of these salts was also measured as a function of temperature. This was performed by incubating the saturated solutions of the salts in temperature controlled incubators.
The buffered solutions were immersed into a bath of water temperature controlled at either room temperature (22-24° C.), at 30° C. or at 40° C. […] In order to eliminate any reminiscent strontium chloride influence on the determination of solubility, all the precipitate was collected at the bottom of the test tubes and the solutions above the precipitate were carefully removed and substituted by fresh solutions. […] From these solutions, the dissolved proportions of the strontium salt were collected in volumes of 1 mL at the specified temperature. The solutions were diluted to 50 mL before analysis by Flame Atomic Absorption Spectrometry (F-AAS).
Two methods were used for quantification of strontium in solutions: Flame Atomic Absorption Spectrometry (F-AAS), and the more sensitive inductively-coupled-plasma-mass spectrometry (ICP-MS).
The solubilities were investigated as described above, and strontium content in the saturated solutions determined as described here below.
Some of the very soluble strontium salts were further diluted before analysis by F-AAS. The measurements were performed by using a Perkin-Elmer 2100 equipped with a hydrogen lamp for correction of the background signal. Strontium was measured at a slit with of 0.2 nm, the wavelength was 460.8 nm operated at an energy of 58 and a current of 8 mA.
This analysis was performed using a Perkin Elmer Elan 5000 system equipped with a cross-flow nebulizer. The power was set at 1000 W and the Argon-gas flow was 12 L/min and 0.8 L/min of the torch and plasma gas, respectively.

[3] = values quoted in scientific literature or reference material such as the Beilstein compendium; cited from earlier work

Compound: [Sr+2] [strontium]
activity at the calcium-sensing receptor (CaR) [1]: full agonist

Compound: [Cl-].[Cl-].[Sr+2] [SrCl2, strontium chloride]
Solubility, Measured g/L ([2]; commercially available strontium salts, in water at room temperature (22-24)): 240 g/L
Solubility, Expected value 18° C. [3]: 538 mg/mL

Compound: O=C([O-])/C=C\C(=O)[O-].[Sr+2] [Maleate, strontium maleate]
solubility in ammonium carbonate buffered solution of pH 7.5 compared with pure water ([2]; pH 7.5): decreased solubility

SOLUBILITY AT 40° C. (mg/L) In water [2]: 1450 mg/L
SOLUBILITY AT ROOM TEMPERATURE (22-24° C. mg/L) In water [2]: 760 mg/L
SOLUBILITY AT 40° C. (mg/L) pH 7.5 ([2]; pH 7.5): 1970 mg/L
SOLUBILITY AT ROOM TEMPERATURE (22-24° C. mg/L) pH 7.5 ([2]; pH 7.5): 890 mg/L
Compound: N#Cc1c(N(CC(=O)[O-])CC(=O)[O-])sc(C(=O)[O-])c1CC(=O)[O-].[Sr+2].[Sr+2] [Ranelate, distrontium salt of 2-[N,N-di(carboxymethyl)amino]-3-cyano-4-carboxymethylthiophene-5-carboxylic acid]
